Measured values: patent US11684601B2, “Treatment of cancer with combinations of agents” (The Board of Trustees of the Leland Stanford Junior …, priority 2019, dated 2023)

Key:
[1] = system: acetylation on H3K9, H3K27, and total H3; assay: Immunoblots of histone acetylation; assay type: cell-based; settings: hypoxia, CHP134; for acetylation on H3K9, H3K27, and total H3: 5 mM acetate, 0.5 mM or 2 mM GTA
Procedure: (§1) Protein isolation and western blot. Cells were washed with PBS buffer and lysed with Harvest lysis buffer supplemented with Halt inhibitors for 5-10 min. Cell lysate was centrifuged at 5000 rpm for 5 min at 4° C. The supernatant containing cytosolic proteins was transferred to a new EP tube. The insoluble part contains nuclear proteins and was further lysed with nuclear lysis buffer for 5 min at 4° C. Then the lysate was sonicated in water-bath at 4° C. for 6 cycles (1 cycle=30 s sonication and 30 s cooldown). After sonication, the cell lysate was centrifuged at 15000 rpm for 10 min. Protein concentration was determined by BOA assay. 1 μg nuclear proteins or 1 μg cytosolic proteins were boiled in loading buffer with reducing reagents, then separated with SDS-PAGE. Protein were transferred onto a nitrocellulose membrane. After blocking in 5% non-fat milk for 1 hour, the first antibody was applied. After 3×TBST washes, HRP-conjugated secondary antibodies were applied. Signals were detected with an ECL kit. The complete antibody list is in table 1.

SMS-KCNR cells [2] = assay: qPCR for SNCG and NGFR expression, SMS-KCNR; assay type: cell-based; settings: hypoxia; 10 μM RA combined with 5 mM acetate or 2 mM GTA, 16 h
Procedure: (§2) RNA Isolation, Reverse Transcription, and Real-Time PCR. Total RNA was isolated from tissue culture plates according to the TRIzol Reagent (Invitrogen) protocol. 3 μg of total RNA was used in the reverse transcription reaction using the iScript cDNA synthesis kit (Bio-Rad). Quantitative PCR amplification was performed on the Prism 7900 Sequence Detection System (Applied Biosystems) using Taqman Gene Expression Assays (Applied Biosystems). Gene expression data were normalized to 18S rRNA.

CHP134 cells [3] = assay: qPCR for SNCG and NGFR expression, CHP134; assay type: cell-based; settings: hypoxia, 16 h
Procedure: as §2

CHP134 cells [4] = settings: hypoxia vs normoxia; U-13C-acetate 3 h
Procedure: Metabolic tracing study. For glucose isotope tracing, CHP134 cells were pretreated under normoxia or hypoxia for 16 h (n=3). Then the medium was changed to DMEM:F12 with 3.15 g/L ^13C6-glucose with 10% dialyzed FBS for 3 h. For acetate isotope tracing, the procedure was same as glucose tracing except that the complete DMEM:F12 medium was supplemented with 2 mM ^13C2-acetate.
Liquid chromatography-mass spectrometry analysis. For the metabolic tracing study, cells were washed with cold PBS, lysed in 80% Ultra LC-MS acetonitrile on ice for 15 min, centrifuged for 10 min at 20,000×g, and supernatant was subjected to mass spectrometry analysis. Liquid chromatography was performed using an Agilent 1290 Infinity LC system (Agilent, Santa Clara, US) coupled to a Q-TOF 6545 mass spectrometer (Agilent, Santa Clara, US). A hydrophilic interaction chromatography method (HILIC) with a BEH amide column (100 ×2.1 mm i.d., 1.7 μm; Waters) was used for compound separation at 35° C. with a flow rate of 0.3 ml/min. The mobile phase A consisted of 25 mM ammonium acetate and 25 mM ammonium hydroxide in water and mobile phase B was acetonitrile. The gradient elution was 0-1 min, 85 % B; 1-12 min, 85% B→65% B; 12-12.2 min, 65% B→40% B; 12.2-15 min, 40% B. After the gradient, the column was re-equilibrated at 85% B for 5 min. The overall runtime was 20 min, and the injection volume was 5 μL. […]

[5] = system: chromatin accessibility at RAR/RXR binding sites; settings: hypoxia; 5 mM acetate
Procedure: ATAC-seq. ATAC-seq was performed and analyzed as previously described (n=2). […] -O 5 -m 30 -q 15. Bowtie 2 version 2.3.1 was used to align trimmed reads to hg19 with flags -q -phred33-X 2000 -fr -p 8 -x hg19, followed by samtools sort command. Duplicates were marked with Picard-tools version 1.83, then samtools view with flags -b -f 1 -F12 -L were used to filter mitochondria mapping reads with a bed file containing all chromosomes except chrM. Filtered mapping files are transferred into coverage bigwig file using deeptools with default bin size (10 bps). SPP/phantom was run to obtain the fragment length with maximum Strand cross-correlation. MACS2 callpeak function was then performed with flags -q 0.05 -nomodel-extsize=½ fragment length obtained from SPP. Associate p-values for each peak is generated and extracted from MACS2 output. Ranked gene lists were created from the RNA-Seq and ATAC-Seq datasets following differential testing. Gene set enrichment analysis were performed using the GSEA with the C2 (CP:REACTOME) MSigDB v6.2.

[6] = infants with Canavan disease; high dose; cited from earlier work
CHP134 cells [7] = assay: Neurite outgrowth assay, CHP134; assay type: cell-based
Procedure: (§3) Neurite outgrowth assay. For the differentiation of neuroblastoma cells, 1×10^5 CHP134 or SMS-KNCR cells were plated in 6 well-plate. After overnight incubation, cells in hypoxia treatment group were pre-incubated in 0.5% 02 hypoxia chamber for 6 h. Then RA was added to reach a final concentration of 10 μM. After 48 h treatment, images were taken through an Olympus phase contrast microscope (×20 magnification). The lengths of the neurites were traced and quantified using the ImageJ plugin NeuronJ. Within each sample, total neurite length was measured and normalized by the number of cell bodies, mean value from biological triplicates was reported.

SMS-KCNR cells [8] = assay: Neurite outgrowth assay, SMS-KCNR; assay type: cell-based; settings: 48 h
Procedure: as §3

[9] = Acetate measurement in plasma; assay type: in vivo, NSG mice; settings: oral GTA, 5% in drinking water; p-value not significant
Procedure: For acetate measurement, 10 ul of serum was mixed with 10 ul of 50 uM ^13C2-acetate. Then, the mixture was precipitated by the addition of 80 ul acetonitrile and centrifuged for 10 min at 20,000×g. 80 ul supernatant was transferred to a new tube and derivertized according to the published protocol. 2 ul sample was subjected to mass spectrometry analysis using Agilent 1290 coupled to Q-TOF 6545. […] The mobile phase were 5 mM ammonium formate and 0.1% formic acid in water (A) and 90% acetonitrile (B). […] Agilent Q-TOF was operated in positive mode with ion spray voltage at 3500 V. The ratio of acetate to ^13C2-acetate was calculated using Agilent Profinder software B.08.00.
Mouse xenograft model. In viva studies were performed in accordance with protocols approved by the Institutional Animal Care and Use Committee at Stanford University and in compliance with all regulatory standards, 6 to 8-week-old male NSG mice were provided by Dr. Erinn Rankin. 2×10^6 CHP134 cells suspended in […] of RPMI-1640 with 50% Matrigel (BD Biosciences) were implanted subcutaneously into the dorsal flank of the mice. Tumor growth was recorded using digital caliper every other day, and tumor volumes were estimated using the formula: (L×W^2)/2, where L=length and W=width of tumor. The animals were randomized into 4 groups (Control, RA, GTA and GTA+RA) when the tumor volumes reached approximately 150 mm^3. […]

[10] = Pharmacokinetics of RA in NSG mice; assay type: in vivo
Procedure: For 13-cis-retinoic acid measurement, serum samples were collected at 0.5 h, 1 h, 2 h and 6 h after RA injection (10 mg/kg, i.p.). 10 ul serum was mixed with 90 ul extraction buffer (ethyl acetate:n-hexane:IPA, 30:60:10). After 20 min on a shaker at 120 rpm, the mixture was centrifuged at 5000 g for 5 min. The organic layer was collected into a new tube and dried using speed vacuum. The residue was reconstituted with 100 ul of 5 mM ammonium formate in water/acetonitrile (1:1). 5 ul sample was subjected to mass spectrometry analysis using Agilent 1290 coupled to QQQ 6470. […] The mobile phase was 5 mM ammonium formate and 0.1% formic acid in water (A) and 90% acetonitrile (B). […] Agilent QQQ 6470 was operated in positive mode with ion spray voltage at 3000 V. The MRM transitions were 301.2→159.1/205.1. Data was processed by Agilent MassHunter Quantitative Analysis for QQQ B.07.01. (Agilent Technologies)

CHP134 cells [11] = assay: Immunofluorescence staining of β-tubulin III / MAP2; assay type: cell-based; settings: 10 μM RA, 72 h
Procedure: Immunofluorescence staining. […] cells were seeded into 8-champer slides with a density of 6000 cells/well and incubated with indicated treatment for 3 days. Cells were fixed with 4% PFA in 0.1% PBS-tween at room temperature for 30 min followed by permeabilization with 0.1% Triton X-100 in PBS at room temperature for 10 min. The cells were washed with PBS twice and blocked with 2.5% horse serum at room temperature for 1 hour. Then, cells were subjected to immunofluorescence staining with primary antibody overnight at 4° C. After twice washes with PBS, cells were incubated with Alexa Fluor 594-labeled anti-rabbit secondary antibody (Life Technologies) at room temperature for 1 hour followed by staining with DAP for 20 min. Images were acquired with Leica DMi8 microscope.

CHP134 cells [12] = assay: RNA-Seq pathway analysis of RA-upregulated genes; assay type: cell-based; settings: 24 h RA vs DMSO
Procedure: RNA Sequencing. The total RNA from four treatment groups (Nor_Ctrl, Nor_RA, Hyp_Ctrl and Hyp_RA, 3 replicates) was extracted using Trizol reagent according to the manufacturer's instructions (n=3). The RNA-seq library was constructed and subjected to 150 bp paired-end sequencing on an Illumina sequencing platform (Novogene). RNA-seq analysis was performed using the kallisto and sleuth analytical pipeline. In brief, a transcript index was generated with reference to Ensembl version 57 for hg19. Paired-end mRNA-seq reads were pseudo-aligned using kallisto (v0.42.4) with respect to this transcript index using 100 bootstraps (-b 100) to estimate the variance of estimated transcript abundances. Transcript-level estimates were aggregated to transcripts per million (TPM) estimates for each gene, with gene names assigned from Ensembl using biomaRt. Differential gene expression analysis was performed using the sleuth R package across pairwise groups (normoxia DMSO vs. normoxia RA, normoxia DMSO vs. hypoxia DMSO, normoxia RA vs. hypoxia RA) using Wald tests, with significant hits called with a sleuth q-vaulue<0.05 and fold change estimate b>abS(In(2)).

CHP134 mice xenografts = assay: Mouse xenograft model; assay type: in vivo; settings: 10 mg/kg RA i.p. daily; after 23 days' treatment
Procedure: Mouse xenograft model. […] Tumor growth was recorded using digital caliper every other day, and tumor volumes were estimated using the formula: (L×W^2)/2, where L=length and W=width of tumor. The animals were randomized into 4 groups (Control, RA, GTA and GTA+RA) when the tumor volumes reached approximately 150 mm^3. 10 mg/kg RA or DMSO vehicle was injected intraperitoneally daily for 3 weeks. Mice received GTA in the drinking water (5% by weight).

[13] = system: tri-methylation on H3K9, H3K27; assay: Immunoblots of histone methylation; assay type: cell-based; settings: hypoxia; CHP134; 1 mM or 5 mM DMKG
Procedure: as §1

[14] = 10 μM RA combined with 5 mM acetate or 2 mM GTA

SMILES: CC(=O)[O-].[Na+] [acetate, Sodium acetate]
- acetylation on H3K9, H3K27, and total H3 [1]: restored acetylation on H3K9, H3K27, and total H3
- expression of NGFR and SNCG (SMS-KCNR cells [2]): significantly restored the expression of NGFR and SNCG
- expression of NGFR and SNCG (CHP134 cells [3]; [14]): significantly restored the expression of NGFR and SNCG
- cellular acetyl-CoA production (13C labeled acetyl-CoA[M+2]) (CHP134 cells [4]): promote cellular acetyl-CoA production
- chromatin accessibility [5]: partially restored chromatin accessibility
- chromatin accessibility of genes with RAR/RXR binding sites [5]: increased chromatin accessibility

SMILES: CC(=O)OCC(COC(C)=O)OC(C)=O [GTA, glycerol triacetate]
- toxicity [6]: no detectable toxicity
- acetylation on H3K9, H3K27, and total H3 [1]: restored acetylation on H3K9, H3K27, and total H3
- expression of NGFR and SNCG (SMS-KCNR cells [2]): significantly restored the expression of NGFR and SNCG
- expression of NGFR and SNCG (CHP134 cells [3]; [14]): significantly restored the expression of NGFR and SNCG
- differentiative activity as a single agent (CHP134 cells [7]; GTA alone): little to no differentiative activity
- RA-induced neuron-like morphological changes (CHP134 cells [7]; hypoxia, 10 μM RA plus 2 mM GTA, 48 h): restored the RA-induced neuron-like morphological changes
- RA-induced neuron-like morphological changes (SMS-KCNR cells [8]; hypoxia, 10 μM RA plus 2 mM GTA): restored the RA-induced neuron-like morphological changes
- plasma acetate concentration vs control group [9]: slight increase of plasma acetate concentration

SMILES: CC1=C(/C=C/C(C)=C/C=C/C(C)=C\C(=O)O)C(C)(C)CCC1 [RA, 13-cis-retinoic acid]
- half-life of RA ([10]; 10 mg/kg i.p.): relative short half-life
- time blood RA concentration maintained above 10 uM ([10]; 10 mg/kg i.p.): around 2 h
- blood RA concentration ([10]; 10 mg/kg i.p., at 6 h after injection): reduced to the basal level
- blood RA concentration ([10]; 10 mg/kg i.p., maintained for around 2 h): above 10 uM
- time of peak blood RA concentration ([10]; 10 mg/kg, after i.p. injection): 30 min
- β-tubulin III/MAP2 positive neurites (CHP134 cells [11]; hypoxia vs normoxia): partially suppressed
- β-tubulin III/MAP2 positive neurites (CHP134 cells [11]; normoxia): increased β-tubulin III/MAP2 positive neurites
- pathway analysis of RA-upregulated genes (CHP134 cells [12]): enrichment of NGF signaling, transmission across of chemical synapses and neuronal system genes
- neurite outgrowth and differentiation morphology (CHP134 cells [7]; 10 μM RA, 48 h, hypoxia (0.5% O2) vs normoxia): partially diminished nerite outgrowth and the differentiation morphology
- cell morphological changes / neurite outgrowth (CHP134 cells [7]; 10 μM RA, 48 h, normoxia (21% O2)): induced obvious cell morphological changes to a mature neuronal-like phenotype characterized by neurite outgrowth
- neurite outgrowth and differentiation morphology (SMS-KCNR cells [8]; 10 μM RA, hypoxia (0.5% O2) vs normoxia): partially diminished nerite outgrowth and the differentiation morphology
- cell morphological changes / neurite outgrowth (SMS-KCNR cells [8]; 10 μM RA, normoxia (21% O2)): induced obvious cell morphological changes to a mature neuronal-like phenotype characterized by neurite outgrowth
- anti-tumor effect (tumor volume, tumor weight) (CHP134 mice xenografts): didn't show anti-tumor effect

SMILES: COC(=O)CCC(=O)C(=O)OC [DMKG, Dimethyl-α-ketoglutarate]
- histone acetylation ([1]; 1 mM or 5 mM DMKG): did not significantly increase histone acetylation
- expression of NGFR and SNCG (CHP134 cells [3]; 10 μM RA combined with 5 mM DMKG): did not restore the expression of NGFR and SNCG
- histone hypermethylation [13]: reduced histone hypermethylation
